Test results taken from US11780826B2 (Amgen Inc., priority 2017, dated 2023).

Test system: Bovine cardiac myofibrils
Test: In vitro model of dose-dependent myofibril ATPase modulation (AC1.4, pyruvate kinase/lactate dehydrogenase-coupled ATPase assay at pCa25)
Type: biochemical
Settings: concentration at which ATPase activity was 1.4-fold higher than the bottom of the dose curve, mean of a minimum of two independent tests
How it was run: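 We measure calcium-buffered ATPase activity of detergent-skinned bovine cardiac myofibrils at pH 6.80 and 22° C with 1 mM ATP, using a PK/LDH-coupled NADH readout at 340 nm. Values come from four-parameter dose-response fits, averaged over at least two independent runs.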

| AC1.4 | Structure (SMILES) |
| --- | --- |
| 0.7104 µM | O=C(N[C@@H](c1ccc(C(F)(F)F)cc1F)C1CC1)[C@H]1CCCN1C(=O)c1cccc(S(=O)(=O)CC(F)(F)F)c1 [Example 281, N-((R)-cyclopropyl(2-fluoro-4-(trifluoromethyl)phenyl)methyl)-1-(3-((2,2,2-trifluoroethyl)sulfonyl)benzoyl)-D-prolinamide] |
| 1.945 µM | CS(=O)(=O)c1cccc(C(=O)N2CCC[C@@H]2C(=O)NC(c2ccc(C(F)(F)F)cc2)C2CNC(=O)C2)c1 (stereo partly shown) [Example 482] |
| 9.6005 µM | CN(C)S(=O)(=O)c1cccc(C(=O)N2CCC[C@@H]2C(=O)N[C@H](c2ccc(C(F)(F)F)cc2F)C2CC2)c1 [Example 802, N-((S)-cyclopropyl(2-fluoro-4-(trifluoromethyl)phenyl)methyl)-1-(3-(dimethylsulfamoyl)benzoyl)-D-prolinamide] |
| 0.2088 µM | O=C(N[C@@H](c1cc(F)c(Cl)cc1F)C1CC1)[C@H]1C[C@H]2C[C@H]2N1C(=O)c1cccc(C(F)(F)F)c1 [Example 127, (1R,3R,5R)-N-((R)-(4-chloro-2,5-difluorophenyl)(cyclopropyl)methyl)-2-(3-(trifluoromethyl)benzoyl)-2-azabicyclo[3.1.0]hexane-3-carboxamide] |
| 0.4821 µM | N#CC1CN(S(=O)(=O)N2CCC[C@H](C(=O)N3CCC[C@@H]3C(=O)NCc3ccc(F)c(F)c3)C2)C1 [Example 221, 1-(((3S)-1-((3-cyano-1-azetidinyl)sulfonyl)-3-piperidinyl)carbonyl)-N-(3,4-difluorobenzyl)-D-prolinamide] |
| 7.6005 µM | CC(O)C(NC(=O)[C@H]1C[C@H]2C[C@H]2N1C(=O)c1cccc(S(C)(=O)=O)c1)c1cc(F)c(Cl)cc1F (stereo partly drawn) [Example 757, (1R,3R,5R)-N-(1-(4-chloro-2,5-difluorophenyl)-2-hydroxypropyl)-2-(3-(methylsulfonyl)benzoyl)-2-azabicyclo[3.1.0]hexane-3-carboxamide] |
| 0.822 µM | COc1cc(C(F)(F)F)ccc1[C@H](NC(=O)[C@H]1C[C@H]2C[C@H]2N1C(=O)c1cccc(S(C)(=O)=O)c1)C1CC1 [Example 309, (1R,3R,5R)-N-((R)-cyclopropyl(2-methoxy-4-(trifluoromethyl)phenyl)methyl)-2-(3-(methylsulfonyl)benzoyl)-2-] |
| 0.1344 µM | N#CC1CN(S(=O)(=O)N2CCC[C@H](C(=O)N3CCC[C@@H]3C(=O)N[C@H](CO)c3ccc(C(F)(F)F)cc3)C2)C1 [Example 88, 1-(((3S)-1-((3-cyano-1-azetidinyl)sulfonyl)-3-piperidinyl)carbonyl)-N-((1S)-2-hydroxy-1-(4-(trifluoromethyl)phenyl)ethyl)-D-prolinamide] |
| 3.7735 µM | O=C(NCc1ccc(C(F)(F)F)cc1F)[C@H]1CCCN1C(=O)[C@H]1CCCN(S(=O)(=O)N2CC(O)C2)C1 [Example 610, N-(2-fluoro-4-(trifluoromethyl)benzyl)-1-(((3S)-1-((3-hydroxy-1-azetidinyl)sulfonyl)-3-piperidinyl)carbonyl)-D-prolinamide] |
| 7.0545 µM | CC(C)(C)c1cc(C(=O)N2[C@@H](C(=O)N[C@@H](c3ccc(Cl)cc3F)C3COC3)C[C@H]3C[C@H]32)ccn1 [Example 738, (1R,3R,5R)-N-((R)-(4-chloro-2-fluorophenyl)(3-oxetanyl)methyl)-2-((2-(2-methyl-2-propanyl)-4-pyridinyl)carbonyl)-2-azabicyclo[3.1.0]hexane-3-carboxamide] |
| 0.3496 µM | N#CC1CN(S(=O)(=O)c2cccc(C(=O)N3CCC[C@@H]3C(=O)N[C@@H](CO)c3ccc(C(F)(F)F)cc3)c2)C1 [Example 188, 1-(3-((3-cyano-1-azetidinyl)sulfonyl)benzoyl)-N-((1R)-2-hydroxy-1-(4-(trifluoromethyl)phenyl)ethyl)-D-prolinamide] |
| 8.59 µM | N#CC1CN(S(=O)(=O)N2CCC[C@H](C(=O)N3CCC[C@@H]3C(=O)NCc3cccc(OC(F)F)c3)C2)C1 [Example 781, 1-(((3S)-1-((3-cyano-1-azetidinyl)sulfonyl)-3-piperidinyl)carbonyl)-N-(3-(difluoromethoxy)benzyl)-D-prolinamide] |
| 0.7944 µM | O=C(NCc1ccc(C(F)(F)F)cc1)[C@H]1CCCN1C(=O)[C@H]1CCCN(S(=O)(=O)N2CCC2c2ccccc2F)C1 (stereo partly drawn) [Example 302, (2R)-1-((3S)-1-((2-(2-fluorophenyl)azetidin-1-yl)sulfonyl)piperidine-3-carbonyl)-N-(4-(trifluoromethyl)benzyl)pyrrolidine-2-carboxamide] |
| 0.02545 µM | N#CC1CN(S(=O)(=O)N2CCC[C@H](C(=O)N3CCC[C@@H]3C(=O)NCc3cc(F)c(Cl)cc3F)C2)C1 [Example 20, N-(4-chloro-2,5-difluorobenzyl)-1-(((3S)-1-((3-cyano-1-azetidinyl)sulfonyl)-3-piperidinyl)carbonyl)-D-prolinamide] |
| 0.8893 µM | N#CC1(F)CN(S(=O)(=O)N2CCC[C@H](C(=O)N3CCC[C@@H]3C(=O)NCc3ccc(C(F)(F)F)cc3F)C2)C1 [Example 327, 1-(((3S)-1-((3-cyano-3-fluoro-1-azetidinyl)sulfonyl)-3-piperidinyl)carbonyl)-N-(2-fluoro-4-(trifluoromethyl)benzyl)-D-prolinamide] |
| 0.2934 µM | O=C(N[C@@H](c1cc(F)c(Cl)cc1F)C1COC1)[C@H]1C[C@H]2C[C@H]2N1C(=O)c1ccnc(C(F)(F)F)c1 [Example 171, (1R,3R,5R)-N-((R)-(4-chloro-2,5-difluorophenyl)(3-oxetanyl)methyl)-2-((2-(trifluoromethyl)-4-pyridinyl)carbonyl)-2-azabicyclo[3.1.0]hexane-3-carboxamide] |
| 5.7373 µM | N#CC1CN(S(=O)(=O)N2CCC[C@H](C(=O)N3CCC[C@@H]3C(=O)NC3Cc4ccccc43)C2)C1 (stereo partly drawn) [Example 705, (2R)-N-(bicyclo[4.2.0]octa-1 (6),2,4-trien-7-yl)-1-((S)-1-((3-cyanoazetidin-1-yl)sulfonyl)piperidine-3-carbonyl)pyrrolidine-2-carboxamide] |
| 3.025 µM | O=C(NCc1ccc(C(F)(F)F)cc1)[C@H]1CCCN1C(=O)[C@H]1CCCN(S(=O)(=O)N2CC(n3ccnc3)C2)C1 [Example 562, 1-(((3S)-1-((3-(1H-imidazol-1-yl)-1-azetidinyl)sulfonyl)-3-piperidinyl)carbonyl)-N-(4-(trifluoromethyl)benzyl)-D-prolinamide] |
| 0.273 µM | N#CC1CN(S(=O)(=O)c2cccc(C(=O)N3CCC[C@@H]3C(=O)N[C@H](CO)c3cccc(C(F)(F)F)c3)c2)C1 [Example 158, 1-(3-((3-cyano-1-azetidinyl)sulfonyl)benzoyl)-N-((1S)-2-hydroxy-1-(3-(trifluoromethyl)phenyl)ethyl)-D-prolinamide] |
| 0.2421 µM | N#CC1CN(S(=O)(=O)c2cc(C(=O)N3CCC[C@@H]3C(=O)NCc3ccc(C(F)(F)F)cc3F)ccn2)C1 [Example 142, 1-((2-((3-cyano-1-azetidinyl)sulfonyl)-4-pyridinyl)carbonyl)-N-(2-fluoro-4-(trifluoromethyl)benzyl)-D-prolinamide] |
| 0.582 µM | CC[C@@H](NC(=O)[C@H]1CCCN1C(=O)[C@H]1CCCN(S(=O)(=O)N2CC(C#N)C2)C1)c1cc(F)cc(F)c1 [Example 245, 1-(((3S)-1-((3-cyano-1-azetidinyl)sulfonyl)-3-piperidinyl)carbonyl)-N-((1R)-1-(3,5-difluorophenyl)propyl)-D-prolinamide] |
| 6.507 µM | N#CC1CN(S(=O)(=O)c2cccc(C(=O)N3CCC[C@@H]3C(=O)NCc3ncc(C(F)(F)F)cn3)c2)C1 [Example 725, 1-((3-((3-cyano-1-azetidinyl)sulfonyl)phenyl)carbonyl)-N-((5-(trifluoromethyl)-2-pyrimidinyl)methyl)-D-prolinamide] |
| 3.2945 µM | O=C(N[C@@H](c1ccc(C(F)(F)F)cc1F)C1CC1)[C@H]1CCCN1C(=O)c1cccc(C2(F)COC2)c1 [Example 577, N—((R)-cyclopropyl(2-fluoro-4-(trifluoromethyl)phenyl)methyl)-1-(3-(3-fluoro-3-oxetanyl)benzoyl)-D-prolinamide] |
| 1.3505 µM | C[C@@H](NC(=O)[C@H]1CCCN1C(=O)[C@H]1CCCN(S(=O)(=O)N2CC(C#N)C2)C1)c1cc(F)cc(F)c1 [Example 391, 1-(((3S)-1-((3-cyano-1-azetidinyl)sulfonyl)-3-piperidinyl)carbonyl)-N-((1R)-1-(3,5-difluorophenyl)ethyl)-D-prolinamide] |
| 0.2306 µM | O=C(N[C@@H](c1cc(F)c(Cl)cc1F)C1CC1)[C@H]1C[C@H]2C[C@H]2N1C(=O)c1cc(S(=O)(=O)C2CC2)ccn1 [Example 138, (1R,3R,5R)-N-((R)-(4-chloro-2,5-difluorophenyl)(cyclopropyl)methyl)-2-((4-(cyclopropylsulfonyl)-2-pyridinyl)carbonyl)-2-azabicyclo[3.1.0]hexane-3-carboxamide] |
| 7.61 µM | N#CC1CN(S(=O)(=O)N2CCC[C@H](C(=O)N3CCC[C@@H]3C(=O)NCc3ccccc3)C2)C1 [Example 758, (R)—N-benzyl-1-((S)-1-((3-cyanoazetidin-1-yl)sulfonyl)piperidine-3-carbonyl)pyrrolidine-2-carboxamide] |
| 0.2589 µM | N#CC1CN(S(=O)(=O)N2CCO[C@H](C(=O)N3CCC[C@@H]3C(=O)NCc3ccc(C(F)(F)F)cc3)C2)C1 [Example 149, 1-(((2S)-4-((3-cyano-1-azetidinyl)sulfonyl)-2-morpholinyl)carbonyl)-N-(4-(trifluoromethyl)benzyl)-D-prolinamide] |
| 0.6674 µM | O=C(N[C@@H](c1cc(F)c(Cl)cc1F)C1CC1)[C@H]1C[C@H]2C[C@H]2N1C(=O)c1cc(C(F)(F)F)ccn1 [Example 266, (1R,3R,5R)-N-((R)-(4-chloro-2,5-difluorophenyl)(cyclopropyl)methyl)-2-((4-(trifluoromethyl)-2-pyridinyl)carbonyl)-2-azabicyclo[3.1.0]hexane-3-carboxamide] |
